In patent US6645966B2, “Treatment of malaria with farnesyl protein transferase inhibitors” (Schering Corporation, priority 2001, dated 2003) one finds melting point and EC50 data, which are given here for 4 compounds.

Where two headings read alike, the source gives them in different places.

Data set [1] deals with P. falciparum (strain C10, partially chloroquine resistant strain). Nature of the data set: In Vitro Plasmodium falciparum Growth Inhibition Assay ([3H]-hypoxanthine uptake into infected erythrocytes). It is filed as cell-based. Particulars: Erythrocyte. The method, then: The growth activity of P. falciparum was determined by measuring the uptake of the radiolabeled nucleic acid precursor [3H]-hypoxanthine from the media into infected erythrocytes by a method similar to that reported by Jomaa et al (1999). In this method human red blood cells (RBC) were infected with P. falciparum (strain C10, partially chloroquine resistant strain) to 0.4% parasitemia (0.4% of the RBC contain at least 1 parasite). The infected human RBC cells were adjusted to a hematocrit of 2% and 200 μl was plated into 96 well plates. DMSO solutions of inhibitors were added to the plates to make final concentrations of inhibitors from 20 μM to 0.2 μM and a final concentration of DMSO between 0.2 and 1%. The inhibitor-RBC solutions were incubated for 48 hours followed by the addition of [3H]-hypoxanthine to each well and further incubated for 24 hours. The incorporation of [3H]-hypoxanthine into the parasite DNA was measured by acid precipitating the nucleic acid content onto filters, washing the filters and counting the incorporated radioactivity in a scintillation counter.

The melting point is the temperature, or range, at which the solid turns liquid. In turn, `Clc1ccc2c(c1)CCc1cccnc1C2N1CCC[C@H](Cn2ccnc2)C1` (single isomer, unassigned) gave a melting point of 71 to 75 °C. As for `CCN(CC)CCCC(C)Nc1ccnc2cc(Cl)ccc12` (stereo not shown) [chloroquine], the EC50 in data set [1] (read-out: ED50) is 260 nM. `O=CN(O)CCCP(=O)(O)O` [fosmidomycin]: in data set [1] (P. falciparum strain C10 in infected human RBC, 0.4% parasitemia, 48 hours incubation then [3H]-hypoxanthine for 24 hours, read-out: ED50 (the source's name)), the EC50 is 600 nM. For the compound `N#Cc1ccc(Cn2cncc2CCNC(=O)[C@H]2CN(Cc3ccncc3)CCN2C(=O)NC2CCCCC2)cc1`, the melting point was 80 °C (dec.).
